melting point [°C] | SMILES
215 to 218 | COc1ccc(Cn2c(=S)[nH]c(=S)c3[nH]cnc32)cc1OC1CCCC1
178 | Cc1cccc(N=C2NCCN2C(=O)Nc2ccc(F)cc2)c1
81 to 83 | COc1ccc(C=CC(=O)c2ccccc2O)cc1
230 to 232 | NC(=O)c1ccc(-c2ccc3nnn(Cc4ccc5ncccc5c4)c3n2)cc1C(F)(F)F
152 to 153 | O=C(O)c1cccc([N+](=O)[O-])c1SCc1ccccc1
90 | CCCCC1(CC)CSc2ccccc2N(c2ccccc2)C1=O (configuration not stated)
88 to 90 | CN(C)CCNc1ccc(NCCCCN)c2c1C(=O)c1ccccc1C2=O
170 to 171 | CCCc1c(OCCCCCCc2cc(C)c(O)c(O)c2C)ccc(C(=O)O)c1O
148 | CC(C)(C)OC(=O)N[C@@H](Cc1ccc(O)c(O)c1)C(=O)O
199 to 201 | O=c1cc(NCCN2CCN(c3ncccn3)CC2)cn[nH]1
198 to 199 | O=c1ccc(-c2c(-c3ccccc3)nn3ccccc23)nn1C1=C(CCO)CCCC1
134 to 136 | O=C(O)c1cccc(NC(=O)C(CS)CCCc2ccccc2)c1 (configuration not stated)
103 to 105 | Clc1ccccc1-c1nc(-c2ccccc2)c(-c2ccccc2)n1Br
248 to 253 | CCOC(=O)c1n[nH]c2c(=S)[nH]c3cc(Cl)ccc3c(=O)c12
245 to 246 | O=C(O)c1cnccc1-c1ccccc1
66 to 66.5 | O=C(c1ccccc1)C1(c2ccccc2)COCO1 (configuration not stated)
156 to 159 | N#Cc1ccc(N(CCCCOc2ccc(O)cc2)n2cnnc2)cc1
160 to 162 | O=C(O)c1cnn(CC(F)(F)F)c1
109 to 110 | COc1cc(C(O)(C(F)(F)F)C(F)(F)F)cc(C)c1NS(C)(=O)=O
75 to 95 | Cc1cc(F)ccc1C(=C(C=CC=O)c1nnnn1C)c1ccc(F)cc1C
245 | Cc1cc(-c2cc(C(F)(F)F)n3ncc(C(=O)Nc4cccc(S(N)(=O)=O)c4)c3n2)ccc1C(F)(F)F
47 to 48 | C=CCCC1C=CCC2=C1C(=O)C1=C(CCCC1)C2=O (configuration not stated)
204 to 205 | O=C1Nc2ccc(Cl)cc2C1(O)Cc1ccccc1 (configuration not stated)

melting point [°C] | SMILES
188 to 190 | Cc1cc(C)c(-n2c(C)c(C)c3c(C#N)nc(C)nc32)c(C)c1
152 to 155 | CCOC(=O)CCC(=O)c1cnc2c(OC)cccc2c1NCc1ccccc1C
66 to 68 | COc1ccc(SCCCCCCCC(=O)O)cc1
93 to 94 | CC(C)CC1(CCCCCl)C(=O)Nc2c(Cl)cc(Cl)cc21 (configuration not stated)
233 to 237 | COc1cc(Nc2c(C#N)cnc3ccc(-c4csc(C=O)c4)cc23)c(Cl)cc1Cl
129 to 130 | COC(=O)c1ccc(C(=O)N2CCN(c3ncccc3[N+](=O)[O-])CC2)nc1
41 to 43 | O=Cc1cccc(-c2ccccn2)n1
227 to 229 | O=C(NCCO)c1ccc(C(=O)NCCO)cc1
90 to 92 | CCOP(=O)(OCC)C(OS(=O)(=O)c1ccc(C)cc1)c1cccc([N+](=O)[O-])c1 (configuration not stated)
197 to 198 | CC(=O)N(C)c1ccc(-c2cc3ccc(Br)cn3c2)cc1C
125 to 126 | CCNc1nc(Cc2ccc(OC)c(OC)c2)nc2sc(C#N)c(C)c12
106 to 108 | CCN(CC)c1ccc2cc(C(=O)OCCO)c(=O)oc2c1
184 | CCN1CCN([C@](O)(CNC(=O)c2ccc(OCc3cc(C)nc4ccccc34)cc2)C(N)=O)CC1
209 to 210 | COc1ccc2sc3c(c2c1)SCCNC3=O
78 to 81 | O=C1c2cc(F)ccc2CCc2cccnc21
282 to 284 | COc1cc2c(Cl)c(C#N)cnc2cc1OCc1ccccc1
118 to 120 | CC(=O)N1CCC(O)(C(=O)c2cc(F)ccc2F)CC1
229 to 233 | C=Cc1ccc2nc(Cl)c(S(N)(=O)=O)n2n1
160 to 163 | CC1(C)[C@H](c2nc(-c3ccc(F)cc3)no2)CC[C@]1(C)NCC(=O)N1C[C@@H](F)C[C@H]1C#N
143 to 148 | CNCCCn1c(-c2ccc(Br)cc2)csc1=Nc1ccccc1
160 | Cn1cc(Cc2cc3cc(C(F)(F)F)ccc3n2S(=O)(=O)c2cccc(C(C)(C)C)c2)cc1C(=O)O
250 to 251 | CCc1n[nH]c2c1nc(-c1ccccc1)c1ccccc12
78 | Brc1ccc(N2CCC(Cc3ccccc3)CC2)nc1

melting point [°C] | SMILES
149 to 151 | CCCc1nc2c(N)nc3ccccc3c2n1CCCCCC(=O)N1CCOCC1
174 | Cc1cc(Cl)cc(C(=O)Nc2cccc(Cl)c2)n1
111 to 113 | Cc1c(O)c(=O)ccn1CCCO
203 to 204 | O=C(NNC(=O)c1ccnc2[nH]ccc12)OCc1ccccc1
252 to 255 | CCCc1nc2c(N)nc3ccc(-c4cccc(S(C)(=O)=O)c4)cc3c2s1
129 to 131 | COc1ccc(C=Nc2ccc(S(=O)(=O)NC(C)(C)C)cc2)cc1F
152 to 154 | CCOC(=O)C1(C(C)C)OC2(O)C3CCCN3C(=O)C(Cc3ccccc3)N2C1=O (configuration not stated)
46 to 47 | COc1ccc(Br)cc1OCCCCCc1ccc(F)cc1
219 to 222 | O=c1ccc(Cl)cn1[C@@H]1c2cc([N+](=O)[O-])ccc2OCC[C@H]1O (relative stereo)
107 to 115 | Cc1cc(SC2=C(O)CC(CCc3ccsc3CO)(C(C)C)OC2=O)c(C(C)(C)C)cc1N (configuration not stated)
133 to 134 | CCCN(CCC)c1c(CC)nn2c(-c3ccc(N(C)C)cc3Cl)cccc12
120 to 124 | COc1cc2ncnc(N3CCC(C(C)(O)COS(=O)(=O)c4ccc(C)cc4)CC3)c2cc1OC (configuration not stated)
118 to 120 | COCCc1ncc(CO)c(NCc2ccc(-c3ccccc3-c3nnnn3C(c3ccccc3)(c3ccccc3)c3ccccc3)cc2)n1
192 to 195 | COc1c(C(C)(C)C)cc(C(=O)O)cc1C(C)(C)C
203 | Cc1cc(C)nc(NC(N)=Nc2ccc(Cl)cc2)n1
208 to 210 | COC(=O)C1=C(C)NC(C)=C(/C=C/S(=O)(=O)N(C)Cc2ccccc2)C1c1cccc([N+](=O)[O-])c1 (configuration not stated)
235 to 237 | COc1nc2ccccc2nc1NC(=S)N1CCN(c2ccc(C(C)=O)cc2)CC1
193 to 195 | CC(=O)N(C)c1ccc2c(c1)cc(C(=O)c1ccc(C)cc1)n2C
124 to 125 | COc1cccc(OC)c1CN1CC2CCCN2c2ccccc21 (configuration not stated)
222 to 224 | CC1=NC(NC(=O)Nc2cccc(C)c2)C(=O)N(CC(=O)N2CCN(CCO)CC2)c2c(C)cccc21 (configuration not stated)
114 to 115 | COC(=O)c1cc(OCc2cn(-c3ccc(C(F)(F)F)cn3)nc2C(C)C)nn1C

SMILES | melting point [°C]
N#CCN(CP(=O)(Oc1ccccc1)Oc1ccccc1)N=O | 76 to 78
Cc1cnc2ccc(NC3=NCCN3)c(Br)c2n1 | > 260
CCCN(CCC)C1Cc2cccc3[nH]c(=O)n(c23)C1 (configuration not stated) | 190 to 192
C=CCN1C2CCC3C1CCC2N3C(c1ccc(C(=O)N2CCCC2)cc1)c1cccc(OC)c1 (configuration not stated) | 126 to 128
CCOC(=O)c1nn(Cc2ccc(Cl)cc2C)c2ccccc12 | 120 to 122
